Measured values from US20220008495A1, “APPLICATION OF PHLEGMYHEATCLEAR IN PREPARATION OF DRUG FOR TREATMENT OF ACUTE EXACERBATION OF CHRONIC OBSTRUCTIVE PULMONARY DISEASE” (SHANGHAI KAIBAO PHARMACEUTICAL CO., LTD., priority 2020, published 2022).
Marks after values point to notes of the source that are not given here.

What was measured:
Assay type in all cases: in vivo, SD rats
[1] = test system: model of rats with acute exacerbation of chronic obstructive pulmonary disease; experiment: Pathological examination of lung tissue (HE staining; MLI, MAN, bronchial wall thickness); settings: dexamethasone 0.23 mg/kg/d gavage 7 days; x±SD, n=8
Protocol: The administration was started from the 2nd day of the 13th week. The same volume of purified water (10 ml/kg/d) was administered intragastrically to rats in the blank control group and the model control group, and the other groups were received high dose of phlegmyheatclear, middle dose of phlegmyheatclear, low dose of phlegmyheatclear, and dexamethasone once a day. All the rats were fasted within 12 hours before sampling of blood, however, the rats were allowed to free access to water. […] Then the rats were anesthetized by intraperitoneal injection of 10% 1.0 ml/100 g urethane. Exposed tracheal intubation was performed. […] The rat trachea and the whole lung were taken out by thoracotomy. […]

[2] = test system: model of rats with acute exacerbation of chronic obstructive pulmonary disease; experiment: Lung functions (animal pulmonary function test system); settings: dexamethasone 0.23 mg/kg/d gavage 7 days; x±SD, n=6-12
From the text: (§1) The rats were allowed to acclimate to their surroundings for 7 days since purchased from the specific company. The rats were fed sterilized feed and allowed to free access to sterilized water. Operators regularly checked purification and water and electricity operating system to keep a quite environment. 14 rats were selected to fall into a blank control group, and the remaining rats were subjected to cigarette smoking and repeatedly infected with Klebsiella pneumoniae (KP) to establish chronic obstructive pulmonary disease (COPD) stable-phase model of rats. The method comprises the steps of: light a cigarette, making smoke concentration reach 3000±500 ppm, twice a day. The rats took a rest for at least 3 hours between the two times of being exposed to cigarette smoking, lasting for a total of 12 weeks. From 1 to 8 weeks, model of rats were instilled KP suspension (6×10^8 CFU/ml) 0.1 ml through the nasal cavity every 5 days. Instillation via the nasal cavity: a sterilized 1 ml syringe was used to draw 0.1 ml of KP suspension; the KP suspension was instilled into the rats when the rats were breathing in, and the instillation process was done in either the left and right nostrils in an alternating way. Lipopolysaccharide (LPS) 2 mg/kg was instilled into the trachea on the first day of the 13th week to establish model of rats with acute exacerbation of chronic obstructive pulmonary disease. After successful modeling, the model of rats were randomly divided into five groups, including a model control group, a high dose of phlegmyheatclear group, a middle dose of phlegmyheatclear group, a low dose of phlegmyheatclear group, and a dexamethasone group, with 12 rats in each group.
The administration was started from the 2nd day of the 13th week. The same volume of purified water (10 ml/kg/d) was administered intragastrically to rats in the blank control group and the model control group, and the other groups were received high dose of phlegmyheatclear, middle dose of phlegmyheatclear, low dose of phlegmyheatclear, and dexamethasone once a day. All the rats were fasted within 12 hours before sampling of blood, however, the rats were allowed to free access to water. Blood samples were collected from caudal vein for CBC. Then the rats were anesthetized by intraperitoneal injection of 10% 1.0 ml/100 g urethane. Exposed tracheal intubation was performed. Changes of the pulmonary functions of the rats were detected by using an animal pulmonary function test system (PET). Blood was collected from the abdominal aorta, and the collected blood was placed for 2 hours and centrifuged to obtain the blood serum to detect the levels of inflammatory factors IL-6, IL-10, CRP and SAA. The rat trachea and the whole lung were taken out by thoracotomy. The right main bronchus was ligated, and the left bronchoalveolar lavage fluid (BALF) was drawn out to detect the level of inflammatory factor TNF-α; the left lung was perfused with 4% paraformaldehyde for 1 hour, and the left lung was directly fixed in the 4% paraformaldehyde for pathological examination.
Before sampling, the rats were anesthetized by intraperitoneal injection of 10% 1.0 ml/100 g urethane. Exposed tracheal intubation was performed. Relevant parameters of each rat were detected by using an animal pulmonary function test system (PET), wherein the parameters include forced vital capacity (FVC), forced expiratory volume at 0.1 s (FEV0.1), forced expiratory volume at 0.3 s (FEV0.3), maximum expiratory flow rate (PEF), mid-maximum expiratory flow (MMEF), functional residual capacity (FRC), and other parameters, changes in lung function (x±SD) of rats in each group are shown in Table 3.

[3] = test system: model of rats with acute exacerbation of chronic obstructive pulmonary disease; experiment: Complete blood count (peripheral blood inflammatory cells); settings: dexamethasone 0.23 mg/kg/d gavage 7 days, x±SD
From the text: as §1
The administration was started from the 2nd day of the 13th week. The same volume of purified water (10 ml/kg/d) was administered intragastrically to rats in the blank control group and the model control group, and the other groups were received high dose of phlegmyheatclear, middle dose of phlegmyheatclear, low dose of phlegmyheatclear, and dexamethasone once a day. All the rats were fasted within 12 hours before sampling of blood, however, the rats were allowed to free access to water. Blood samples were collected from caudal vein for CBC. Then the rats were anesthetized by intraperitoneal injection of 10% 1.0 ml/100 g urethane. Exposed tracheal intubation was performed. Changes of the pulmonary functions of the rats were detected by using an animal pulmonary function test system (PET). […]
Blood samples were collected from caudal vein for CBC, the following items were counted: the white blood cell count (WBC), the ratio of neutrophils (NEU %), the percentage of lymphocytes (% LYMPH) and the percentage of mononuclear cells (% MONO).

[4] = test system: model of rats with acute exacerbation of chronic obstructive pulmonary disease; experiment: Determination of serum CRP and SAA levels (ELISA); settings: dexamethasone 0.23 mg/kg/d gavage 7 days, x±SD, n=9-12
From the text: as §1, with “Lipopolysaccharide (LPS) 2 mg/kg was instilled into the trachea on the first day of the 13th week to establish model of rats with acute exacerbation of chronic obstructive pulmonary disease. After successful modeling, the model of rats were randomly divided into five groups, including a model control group, a high dose of phlegmyheatclear group, a middle dose of phlegmyheatclear group, a low dose of phlegmyheatclear group, and a dexamethasone group, with 12 rats in each group.” left out
The administration was started from the 2nd day of the 13th week. […] Changes of the pulmonary functions of the rats were detected by using an animal pulmonary function test system (PET). […]

[5] = test system: model of rats with acute exacerbation of chronic obstructive pulmonary disease; experiment: Determination of IL-6, IL-10 in serum and TNF-α in alveolar lavage fluid (ELISA); settings: dexamethasone 0.23 mg/kg/d gavage 7 days, n=10-12
Protocol: The administration was started from the 2nd day of the 13th week. The same volume of purified water (10 ml/kg/d) was administered intragastrically to rats in the blank control group and the model control group, and the other groups were received high dose of phlegmyheatclear, middle dose of phlegmyheatclear, low dose of phlegmyheatclear, and dexamethasone once a day. All the rats were fasted within 12 hours before sampling of blood, however, the rats were allowed to free access to water. […] Then the rats were anesthetized by intraperitoneal injection of 10% 1.0 ml/100 g urethane. Exposed tracheal intubation was performed. […]

C[C@@H]1C[C@H]2[C@@H]3CCC4=CC(=O)C=C[C@]4(C)[C@@]3(F)[C@@H](O)C[C@]2(C)[C@@]1(O)C(=O)CO [Dexamethasone, dexamethasone]
MAN (mean alveolar numbers) [1]: 330.49 ± 77.29 ↑/mm^2 | MLI (mean linear intercept) [1]: 47.24 ± 5.78 μm | Wt (bronchial wall thickness) [1]: 16.6 ± 4.01 µm | FEV0.1 (forced expiratory volume at 0.1 s) [2]: 5.31 ± 2.90 mL | FEV0.3 (forced expiratory volume at 0.3 s) [2]: 15.06 ± 2.84 ^b mL | FRC (functional residual capacity) [2]: 4.37 ± 1.48 mL | FVC (forced vital capacity) [2]: 16.33 ± 2.01^bb mL | MMEF (mid-maximum expiratory flow) [2]: 78.6 ± 29.1 mL/s | PEF (maximum expiratory flow rate) [2]: 81.57 ± 29.43 mL/S | LYM (percentage of lymphocytes) [3]: 82.15 ± 15.32% | MONO (percentage of mononuclear cells) [3]: 0.61 ± 0.25^b % | NEU (ratio of neutrophils) [3]: 16.57 ± 14.99% | WBC (white blood cell count) [3]: 3.80 ± 1.53^bb *10^9/L | CRP [4]: 3420.23 ± 1254.10^bb ng/mL | SAA [4]: 19.18 ± 6.18^bb μg/mL | TNF-α ([5]; alveolar lavage fluid (BALF)): 325.52 ± 49.51^bb pg/mL | IL-6 ([5]; serum): 507.54 ± 185.62^bb pg/mL | IL-10 ([5]; serum): 40.65 ± 6.31 ^ pg/mL
